The values below come from publication PMC8629109 (Journal of medicinal chemistry, 2020).

Structures are written as SMILES. Where two headings read alike, the source gives them in different places.

Data set [1] concerns the target mGluR2 (Rattus norvegicus, UniProt P31421). The data set is described as follows: PET imaging and blocking studies in rat brain. In kind it is in vivo, Sprague-Dawley rats. Particulars: pretreatment 4 mg/kg i.v. 10 min before [11C]13, 10–30 min time window.
Data set [2] can be described thus: Rat liver microsomal stability. In kind it is in vitro ADME. Particulars: Sprague-Dawley, liver microsomes, pH 7.4. In general terms: Microsomes from liver hold many membrane-bound enzymes, among them those of drug oxidation.
Data set [3] is described as follows: Solution stability in aqueous buffers. In kind it is physicochemical.
Data set [4] deals with other mGluR subtypes (mGluR1, mGluR3, mGluR4, mGluR5, mGluR6, mGluR8). As to the kind of experiment: Selectivity among mGluR subtypes. To be noted: versus mGluR2.
In a further data set the target is recombinant human P-gp (Homo sapiens, UniProt P08183). The data set is described as follows: Pgp-Glo assay, P-gp ATPase activity. Particulars: compared with basal and verapamil activities; test compound 200 μM.
Chain of recombinant human P-gp (P08183 whole entry): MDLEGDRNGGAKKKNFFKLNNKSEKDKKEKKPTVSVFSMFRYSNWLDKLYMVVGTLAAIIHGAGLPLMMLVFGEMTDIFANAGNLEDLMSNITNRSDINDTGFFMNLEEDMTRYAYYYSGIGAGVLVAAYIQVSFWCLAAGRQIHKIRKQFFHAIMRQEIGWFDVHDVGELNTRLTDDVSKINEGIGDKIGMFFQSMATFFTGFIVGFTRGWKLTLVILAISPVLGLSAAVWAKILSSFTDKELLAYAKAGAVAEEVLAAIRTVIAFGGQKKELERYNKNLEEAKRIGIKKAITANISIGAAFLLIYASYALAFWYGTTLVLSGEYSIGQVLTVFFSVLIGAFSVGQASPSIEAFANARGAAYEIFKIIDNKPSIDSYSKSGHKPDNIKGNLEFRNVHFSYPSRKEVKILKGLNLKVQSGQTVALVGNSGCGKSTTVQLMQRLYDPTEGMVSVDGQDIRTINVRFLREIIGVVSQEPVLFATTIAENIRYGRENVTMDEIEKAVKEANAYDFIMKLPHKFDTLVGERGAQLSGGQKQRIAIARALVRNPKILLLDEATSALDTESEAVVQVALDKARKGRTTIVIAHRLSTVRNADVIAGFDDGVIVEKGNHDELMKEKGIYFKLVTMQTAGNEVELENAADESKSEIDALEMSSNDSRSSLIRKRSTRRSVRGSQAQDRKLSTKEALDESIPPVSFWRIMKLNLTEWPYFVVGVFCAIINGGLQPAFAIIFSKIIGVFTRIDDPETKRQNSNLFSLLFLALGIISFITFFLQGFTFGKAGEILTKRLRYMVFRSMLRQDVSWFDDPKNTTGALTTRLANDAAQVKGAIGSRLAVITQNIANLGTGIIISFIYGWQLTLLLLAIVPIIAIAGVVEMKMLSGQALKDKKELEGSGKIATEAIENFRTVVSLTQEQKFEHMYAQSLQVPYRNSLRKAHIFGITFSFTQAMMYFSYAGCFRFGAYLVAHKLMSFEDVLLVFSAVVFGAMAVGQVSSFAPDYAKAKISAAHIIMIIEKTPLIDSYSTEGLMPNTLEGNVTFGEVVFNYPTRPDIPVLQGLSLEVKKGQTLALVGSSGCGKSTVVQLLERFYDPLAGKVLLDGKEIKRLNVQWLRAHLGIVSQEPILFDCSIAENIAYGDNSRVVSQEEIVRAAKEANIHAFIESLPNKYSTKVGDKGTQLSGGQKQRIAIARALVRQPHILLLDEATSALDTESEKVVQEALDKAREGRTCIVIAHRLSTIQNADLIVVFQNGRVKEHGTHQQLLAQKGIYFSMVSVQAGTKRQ
The target in data set [5] is T1, mGluR2 (Homo sapiens, UniProt Q14416). The data set is described as follows: Competitive binding assay with [3H]JNJ-46281222 in mGluR2 transfected CHO cells.
T1 sequence (Q14416 19-872): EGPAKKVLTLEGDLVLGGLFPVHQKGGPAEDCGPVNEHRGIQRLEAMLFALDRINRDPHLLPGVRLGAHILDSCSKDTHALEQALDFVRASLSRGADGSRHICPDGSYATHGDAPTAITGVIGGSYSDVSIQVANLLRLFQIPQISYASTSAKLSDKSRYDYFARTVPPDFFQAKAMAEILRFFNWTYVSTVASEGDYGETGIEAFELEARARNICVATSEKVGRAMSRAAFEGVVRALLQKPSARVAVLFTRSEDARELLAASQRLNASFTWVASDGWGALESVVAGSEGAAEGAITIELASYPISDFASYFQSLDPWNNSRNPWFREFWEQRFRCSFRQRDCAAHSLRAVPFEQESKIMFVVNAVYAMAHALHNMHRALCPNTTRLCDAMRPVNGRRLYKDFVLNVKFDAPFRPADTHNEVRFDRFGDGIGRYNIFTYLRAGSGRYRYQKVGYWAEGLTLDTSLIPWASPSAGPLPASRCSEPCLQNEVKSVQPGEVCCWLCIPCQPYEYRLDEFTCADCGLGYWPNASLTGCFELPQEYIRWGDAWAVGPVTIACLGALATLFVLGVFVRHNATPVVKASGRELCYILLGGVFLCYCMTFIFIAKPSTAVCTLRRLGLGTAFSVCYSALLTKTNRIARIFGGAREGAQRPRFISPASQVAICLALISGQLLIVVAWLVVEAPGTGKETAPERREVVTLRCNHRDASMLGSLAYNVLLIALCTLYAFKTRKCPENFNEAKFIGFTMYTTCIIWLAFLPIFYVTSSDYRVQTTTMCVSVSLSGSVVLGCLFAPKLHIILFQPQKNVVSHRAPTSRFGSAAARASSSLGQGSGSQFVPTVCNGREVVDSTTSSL
Data set [6] is described as follows: Plasma stability in rat serum. In kind it is in vitro ADME. To be noted: 37 °C.
Data set [7] has as its target T1, mGluR2. The data set is described as follows: GloSensor cAMP biosensor assay, mGluR2 PAM activity. To be noted: read-out: EC50, mGluR2 PAM activity; in the presence of EC20 amount of L-glutamate; intracellular cAMP.
For data set [8] the following is noted: PAMPA high / low permeability standard, value as stated, ref not given; cited from earlier work. For orientation: In PAMPA a lipid-coated filter parts donor from acceptor wells.

Chain of mGluR2 (Rattus norvegicus, UniProt P31421) (P31421 19-872): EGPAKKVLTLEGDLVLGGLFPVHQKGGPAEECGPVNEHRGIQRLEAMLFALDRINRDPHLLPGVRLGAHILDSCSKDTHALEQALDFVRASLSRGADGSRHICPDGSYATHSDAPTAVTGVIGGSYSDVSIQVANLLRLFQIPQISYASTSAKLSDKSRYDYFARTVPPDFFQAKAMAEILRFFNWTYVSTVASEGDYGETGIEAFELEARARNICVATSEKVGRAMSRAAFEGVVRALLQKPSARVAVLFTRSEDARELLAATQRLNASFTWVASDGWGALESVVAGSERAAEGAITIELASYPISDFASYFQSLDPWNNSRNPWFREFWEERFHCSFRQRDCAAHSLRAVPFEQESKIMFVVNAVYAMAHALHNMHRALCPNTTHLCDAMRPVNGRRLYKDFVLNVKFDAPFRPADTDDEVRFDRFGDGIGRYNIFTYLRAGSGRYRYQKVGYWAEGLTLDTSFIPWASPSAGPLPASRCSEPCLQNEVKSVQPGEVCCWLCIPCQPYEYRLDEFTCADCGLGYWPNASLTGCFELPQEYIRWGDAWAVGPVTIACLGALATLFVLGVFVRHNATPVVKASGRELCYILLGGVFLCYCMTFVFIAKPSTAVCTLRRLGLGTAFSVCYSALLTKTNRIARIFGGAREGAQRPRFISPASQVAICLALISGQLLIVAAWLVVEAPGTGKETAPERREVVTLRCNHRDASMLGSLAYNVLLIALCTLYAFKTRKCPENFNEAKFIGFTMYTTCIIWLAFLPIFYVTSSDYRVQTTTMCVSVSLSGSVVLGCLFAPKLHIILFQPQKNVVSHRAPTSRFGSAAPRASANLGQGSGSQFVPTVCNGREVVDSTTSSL

A word on the half-life: it is the time needed for the level to fall by half in the phase considered. Read a low half-life as rapid decline. As a reminder, the IC50 is the concentration needed to halve the response being measured. `COc1cc(C(F)(F)F)ccc1C1CCN(Cc2nc3ncccc3n2C)CC1` [Compound 13, 2-((4-(2-Methoxy-4-(trifluoromethyl)phenyl)piperidin-1-yl)methyl)-1-methyl-1H-imidazo[4,5-b]pyridine]: the “enhancement of radioactivity uptake in the different brain areas” value on mGluR2 [1] is given as 33–49%. Further, in data set [2], the half-life at 3 μM was 1.24 h. Besides, the “The solution stability: the intact ± SEM at 120 min” value in data set [3] (pH = 5.0, 37 °C) worked out at 95.3 ± 0.3%; in [3] (pH = 7.4, 37 °C), 94.5 ± 0.4%; in data set [3] (pH = 9.4, 37 °C) it was 96.1 ± 0.7%. Further, the “selectivity against other mGluR subtypes” value in data set [4] is over 100 fold. Further, the “P-gp ATPase activity” value at recombinant human P-gp is given as “moderate”. The P-gp substrate assessment result at recombinant human P-gp is “not a P-gp substrate”. The same compound displayed an IC50 on mGluR2 [5] of 7.6 ± 0.9 nM. For the same compound, in data set [6], the “The plasma stability: the intact ± SEM at 120 min” value stood at 96.6 ± 2.1%.

The microsomal CLint is the capacity of the preparation to metabolise the compound, expressed as a volume cleared per time. With `COc1cc(C(F)(F)F)ccc1C1CCN(Cc2nc3nccc4c3n2CCC4)CC1` [Compound 14, 2-((4-(2-Methoxy-4-(trifluoromethyl)phenyl)piperidin-1-yl)methyl)-5,6-dihydro-4H-imidazo [4,5,1-ij][1,7]naphthyridine], in data set [2], the half-life at 3 μM was determined as 1.23 h and the microsomal CLint at 3 μM worked out at 18.1 µL/min/mg. For the same compound, the concentration for half-maximal inhibition (IC50) on mGluR2 [5] is 10.5 ± 0.5 nM. Moreover, in [6], the “The plasma stability: the intact ± SEM at 120 min” value came out at 89.2 ± 0.6%.

The term EC50 denotes the concentration that produces a half-maximal response. Take `COc1cc(C(F)(F)F)ccc1OC[C@@H]1[C@H]2CN(Cc3nc4ncccc4n3C)C[C@@H]12` [Compound 15, 2-(((1R,5S,6R)-6-((2-methoxy-4-(trifluoromethyl)phenoxy)methyl)-3-azabicyclo[3.1.0]hexan-3-yl)methyl)-1-methyl-1H-imidazo[4,5-b]pyridine]: on mGluR2 [7], the EC50 turned out to be 7800 nM. On mGluR2 [5] (read-out: IC50 ± SEM, mGluR2 transfected CHO cells, 10 nM [3H]JNJ-46281222), the IC50 was found to be 10.5 ± 7.9 nM.

As to `Fc1ccc(N2CCN(Cc3ccn4c(CC5CC5)nnc4c3C(F)(F)F)CC2)c(F)c1` [Compound 17, 3-(Cyclopropylmethyl)-7-((4-(2,4-difluorophenyl)piperazin-1-yl)methyl)-8-(trifluoromethyl)[1,2,4]triazolo[4,3-a]pyridine, reference compound], the “decrease of [11C]13 uptake in different brain areas” value on mGluR2 [1] is on record as 28–37%.

`COc1ccc([C@@H]2Sc3ccccc3N(CCN(C)C)C(=O)[C@@H]2OC(C)=O)cc1` [Diltiazem, reference compound]: the “The plasma stability: the intact ± SEM at 120 min” value in [6] is listed as 43.2 ± 0.8%.

As for `COc1cc(NC(=O)c2ccccn2)ccc1Cl` [ML128, reference compound], in [2], the half-life at 3 μM was 0.07 h and the microsomal CLint at 3 μM amounted to 317 µL/min/mg.

In the case of `Cn1c(=O)c2[nH]cnc2n(C)c1=O` [theophylline], the “Pe of quality control standard” value in data set [8] was 0.12 ×10⁻⁶ cm/s.
